The numbers were not newly measured in patent US5889008A, “Substituted 1-indolylpropyl-4-phenethylpiperazadine derivatives” (Merck Sharp & Dohme, Ltd., priority 1995, dated 1999), which cites them from elsewhere.

In series [1] the test system is human 5-HT1Dα and 5-HT1Dβ receptor subtypes. The following applies: cf. WO-A-91/17174, Table 1.
The next series has as its system humans. The conditions noted are these: therapeutic doses.

On to `CNS(=O)(=O)Cc1ccc2[nH]cc(CCN(C)C)c2c1` [sumatriptan], for which the “discrimination between the human 5-HT1Dα and 5-HT1Dβ receptor subtypes” value in series [1] is “barely discriminates between the human 5-HT1Dα and 5-HT1Dβ receptor subtypes”. Also, the adverse cardiovascular events entry with humans is reported as “certain adverse cardiovascular events”.
